± gives the expanded uncertainty stated by the source.
Conditions: Crystal; Adiabatic calorimetry

O=Cc1ccc(Cl)cc1Cl [2,4-dichlorobenzaldehyde]
Triple point temperature: 347.24 ± 0.27 K
